Experimental data: patent publication US20030105158A1, “Hydrates of a neuraminic acid compound and crystalline forms thereof” (SANKYO COMPANY, LIMITED, priority 2000, published 2003)
Counter-ions that a name gives are not always drawn.

Assay: Stability test (storage stability, residual amount by HPLC)
Type: physicochemical
Conditions: relative to initial content (100%)
Experimental: In the stability test, the crystals of the compound (I) of the present invention prepared in Example 1 and as reference, the amorphous powder (trifluoroacetate salt) of compound (I) described in Example 35 of the specification of Japanese Patent Application Publication No. Hei 10-330373 were used. These compounds were stored separately at 40° C. in a desiccator with a relative humidity of 75% for 56 days (8 weeks), and the content of these compounds was measured on 14 (2 weeks), 28 (4 weeks) and 56 days (8 weeks) after the initiation of the storage.
Furthermore, these compounds were also stored separately at 60° C. in a desiccator with silica gel for 56 days (8 weeks), and the content of these compounds was measured in the same manner as that described above.
The contents of these compounds were determined quantitatively with high performance liquid chromatography (HPLC), and the amount of the remaining compounds (%) at each sampling point was calculated based on the initial content (100%) determined immediately before the storage.

[1] = stored at 40° C. in a desiccator with a relative humidity of 75%, 14 days
[2] = stored at 40° C. in a desiccator with a relative humidity of 75%, 28 days
[3] = stored at 40° C. in a desiccator with a relative humidity of 75%, 56 days
[4] = stored at 60° C. in a desiccator with silica gel, 14 days
[5] = stored at 60° C. in a desiccator with silica gel, 28 days
[6] = stored at 60° C. in a desiccator with silica gel, 56 days

Residual amount (amount of the remaining compound) [1]	Residual amount (amount of the remaining compound) [2]	Residual amount (amount of the remaining compound) [3]	Residual amount (amount of the remaining compound) (stored at 40° C. in a desiccator with a relative humidity of 75%, 56 days, listed as crystals (hydrated crystals) of compound (I))	Residual amount (amount of the remaining compound) [4]	Residual amount (amount of the remaining compound) [5]	Residual amount (amount of the remaining compound) [6]	Residual amount (amount of the remaining compound) (stored at 60° C. in a desiccator with silica gel, 56 days, listed as crystals (hydrated crystals) of compound (I))	Residual amount (amount of the remaining compound) (stored at 40° C. in a desiccator with a relative humidity of 75%, 56 days, listed as amorphous powder (trifluoacetate salt) of compound (I))	Residual amount (amount of the remaining compound) (stored at 60° C. in a desiccator with silica gel, 56 days, listed as amorphous powder (trifluoacetate salt) of compound (I))	Structure (SMILES)
99.8%	100.2%	100.3%	100%	99.9%	100.6%	99.6%	more than 99%			CCCCCCCC(=O)OC[C@@H](O)[C@@H](OC)[C@@H]1OC(C(=O)O)=C[C@H](NC(=N)N)[C@H]1NC(C)=O [Hydrated crystal of compound (I), 5-Acetamido-4-guanidino-9-O-octanoyl-2,3,4,5-tetradeoxy-7-O-methyl-D-glycero-D-galacto-non-2-enopyranosonic Acid Hydrate in Crystalline Form]
38.5%	27.2%	10.2%		95.7%	92.9%	89.0%		10.2%	89%	CCCCCCCC(=O)OC[C@@H](O)[C@@H](OC)[C@@H]1OC(C(=O)O)=C[C@H](NC(=N)N)[C@H]1NC(C)=O [Amorphous powder of compound (I), trifluoroacetate salt of 5-acetamido-4-guanidino-9-O-octanoyl-2,3,4,5-tetradeoxy-7-O-methyl-D-glycero-D-galacto-non-2-enopyranosonic acid]
